Literature values as cited in patent US7605180B2, “Nateglinide-containing preparation” (Ajinomoto Co., Inc., priority 2000, dated 2009).

What was measured:
blood glucose = conditions: oral administration

Water solubility: poorly water soluble
Structure (SMILES): CC(C)[C@H]1CC[C@H](C(=O)N[C@H](Cc2ccccc2)C(=O)O)CC1 [nateglinide, N-(trans-4-isopropylcyclohexylcarbonyl)-D-phenylalanine]
Blood glucose-lowering effect (blood glucose): excellent blood glucose-lowering effect
